Test system: calcium channel (e.g., L-type, N-type, etc.)
Experiment: HEK assay, whole-cell patch clamp of transiently transfected HEK-293T/17 cells
Assay type: cell-based
Settings: whole-cell voltage clamp, holding potential −100 mV
Experimental: HEK-293T/17 cells are transiently transfected in a similar manner as described in FuGENE 6 Package Insert Version 7, April 2002, Roche Applied Science, Indianapolis, Ind. The cells are plated at 2.5×10^5 cells in 2 mL in a 6-well plate in incubator for one night and achieve a 30˜40% confluence. In a small sterile tube, add sufficient serum-free medium as diluent for FuGENE Transfection Reagent (Roche Applied Science, Indianapolis, Ind.), to a total volume of 100 μL. Add 3 μL of FuGENE 6 Reagent directly into this medium. The mixture is tapped gently to mix. 2 μg of DNA solution (0.8-2.0 μg/μL) is added to the prediluted FuGENE 6 Reagent from above. The DNA/Fugene 6 mixture is gently pipeted to mix the contents and incubated for about 15 minutes at room temperature. The complex mixture is then added to the HEK-293T/17 cells, distributing it around the well, and swirled to ensure even dispersal. The cells are returned to the incubator for 24 hrs. The transfected cells are then replated at density 2.5×10^5 in a 35 mm dish with 5 glass coverslips and grow in low serum (1%) media for 24 hrs. Coverslips with isolated cells are then transferred into chamber and calcium channel (e.g., L-type, N-type, etc.) current or other currents for counter screening are recorded from the transiently transfected HEK-293T/17 cells. […]

Row | IC50 [µM] | SMILES
1 | 0.135 | CN(Cc1nc(CNc2ccc(F)cc2)cn1-c1ccc(Cl)cc1)c1ccc(F)cc1 [Compound 5]
2 | 2.69 | CN(Cc1nc(CN2CCCC2)cn1-c1ccc(Cl)cc1)c1ccc(F)cc1 [Compound 6]

From patent US20070197619A1, “Ion Channel Modulators” (priority 2004, published 2007)
